Values joined by “and” are separate entries in the source; they are usually repeats but may differ in a detail not shown here. Equal entries are not always repeated. “Also recorded” adds a separate entry of the source. Where two headings read alike, the source gives them in different places.
Columns and labels:
SARS‐CoV‐2 [1] = system: SARS‐CoV‐2; set-up: method as in PMID 37100830; settings: clinical trial by Klussmann and colleagues; cited from earlier work
Calu‐3 cells = assay: Cell viability / cytotoxicity in uninfected Calu‐3 cells; settings: 72 h, Azatadine‐Dimaleate 25 µM, Remdesivir 1 µM, or combination (1 µM + 25 µM)
SARS‐CoV‐2 [2] = assay: microbe, parasite or virus in culture; assay type: cell-based; settings: for Improvement in potency in combination vs alone: Calu‐3, ratio of EC50 alone to EC50 in combination; for EC50: Severe acute respiratory syndrome coronavirus 2, Calu‐3, pretreated 24 h, PHE MOI = 0.1, 72 hpi, viral titres by plaque assay, read-out: EC50, drug alone
SARS‐CoV‐2 [3] = assay: CPE-based high-throughput screen (CellTox Green) in Vero cells; assay type: cell-based
SARS‐CoV‐2 [4] = assay: CPE-based high-throughput screen (CellTox Green) in Calu‐3 cells; assay type: cell-based
SARS‐CoV‐2 [5] = assay: microbe, parasite or virus in culture; assay type: cell-based
SARS‐CoV‐2 [6] = assay: Viral NSP12 RNA by RT‐qPCR in Calu‐3 cells; assay type: cell-based; settings: Calu‐3, RT‐qPCR
Experimental: (A) Cell viability assessment in uninfected Calu‐3 cells treated with DMSO control, Azatadine‐Dimaleate (25 µM), Remdesivir (1 µM), or the combination (Remdesivir 1 µM + Azatadine 25 µM) for 72 h. […] (B) Release of infectious virus was quantified by plaque assay. Calu‐3 cells were pretreated with Azatadine‐Dimaleate (5 & 25 µM) or Remdesivir (1 µM) 24 h before infection with SARS‐CoV‐2 PHE (MOI = 0.1). (C) Levels of viral NSP12 RNA was measured by RT‐qPCR following treatment with Azatadine‐Dimaleate at (5 & 25 µM) or Remdesivir (1 µM) 24 h before infection with SARS‐CoV‐2 (PHE MOI = 0.1). Data bars represent mean ± SEM of n = 3 independent experiments. Statistical analysis by one‐way ANOVA, ***p ≤ 0.001 vs DMSO control. […] DMSO alone was used as a negative control. At 72 hpi viral titres were determined by plaque assay. Data points represent an average of 3 separate repeat experiments ±SEM.
For RNA extraction, cultures were incubated with 400 µL of Lysis/Binding buffer (High Pure Isolation Kit; Roche) for 5 min at room temperature. […] RNA was quantified by spectrophotometry and 1 µg was transcribed into cDNA using The High‐Capacity cDNA Reverse Transcription Kit (Applied Biosystems, Thermo Fisher Scientific) in 0.2 mL PCR reaction tubes (Eppendorf). […] Ready‐made catalogue assays for a set of primers and probes (FAM labelled) (Thermofisher) specific for human genes involved in the innate immune response to SARS‐COV‐2 such as: IFNL1 (Assay ID: Hs00601677 g1, Cat. No:433118) IFNB (Assay ID:Hs01077958_s1, Cat. No. 4331182), ISG15 (Assay ID: Hs01921425 s1, catalogue no:4331182), IFIT1 (Hs03027069_s1, Cat no. 4331182), IL6 (Hs00174131_m1, Cat no. 4331182) and CXCL8/IL8 (Bt03211906_m1, Cat no. 4331182) were selected for analyses.
(§1) When performing qPCR the Roche probe mixes for the detection of TBP (Cat. No. 05189284001) and GAPDH (Assay ID: Hs02786624_g1, Cat. No:4331182) were used as references. The LightCycler® 480 Probes Master mix was used following the manufacturer's protocol to quantify the mRNA expression levels for all genes of interest. […]

SARS‐CoV‐2 LIV strain = assay type: in vivo, K18‐hACE2 mice; settings: for Mean weight loss: Azatadine‐Dimaleate 10 mg/kg i.p. daily, remdesivir (as GS‐441524) 25 mg/kg daily, vehicle 12%; for Histopathology score: single animal shown in Fig. S5, 4 dpi, vehicle treated animal score 4
[7] = system: IFNL1, IFNB, IFIT1, ISG15, IL6, CXCL8/IL8; assay: Innate immune response gene expression by RT‐qPCR in infected WD‐PBECs; assay type: cell-based, human; settings: 96 hpi, treatment from 24 hpi
Experimental: Figure 5 Azatadine‐Dimaleate modulates innate immune responses in WD‐PBEC cultures. RNA samples were harvested at 96 hpi from each condition in duplicate from WD‐PBECs and a panel of selected innate immune genes (IFNL1, IFNB, IFIT1, ISG15, IL‐6, CXCL8/IL8), were quantified using RT‐qPCR assay. The relative ratios for each gene were calculated in reference to a house keeping gene GAPDH using light cycler 96 software 1.1. The data value plotted for each donor in each condition is an average of 2 biological duplicate Transwells and four technical replicates. Where possible, statistical significance was determined using unpaired Student t‐test between DMSO control and individual treatments (*p ≤ 0.05, **p ≤ 0.01).
For RNA extraction, cultures were incubated with 400 µL of Lysis/Binding buffer (High Pure Isolation Kit; Roche) for 5 min at room temperature. […] RNA was quantified by spectrophotometry and 1 µg was transcribed into cDNA using The High‐Capacity cDNA Reverse Transcription Kit (Applied Biosystems, Thermo Fisher Scientific) in 0.2 mL PCR reaction tubes (Eppendorf). […]
as §1

SARS‐CoV‐2 [8] = assay type: cell-based; settings: Calu‐3 pretreated 24 h before infection, MOI = 0.1, plaque assay
SARS‐CoV‐2 [9] = assay type: cell-based; settings: WD‐PBECs; for Reduction in viral titers compared to DMSO (significance): Remdesivir 1 µM, Azatadine‐Dimaleate 25 µM, or combination 0.4 µM + 10 µM, 48, 72, 96 hpi
SARS‐CoV‐2 [10] = system: SARS‐CoV‐2; set-up: method as in PMID 32366720; settings: Vero cells; cited from earlier work
[11] = Severe acute respiratory syndrome coronavirus 2, Vero cells, 5 µM, drug 24 h before infection, MOI = 0.1, 72 hpi
[12] = Severe acute respiratory syndrome coronavirus 2, Calu‐3 cells, 5 µM, drug 24 h before infection, MOI = 0.1, 72 hpi
[13] = Severe acute respiratory syndrome coronavirus 2, Calu‐3 cells, PHE MOI = 0.1, 72 hpi, 7 serial 1 in 2 dilutions from 20 µM, read-out: EC50 (CPE inhibition)
[14] = Vero cells, 5 µM, drug 24 h before infection, MOI = 0.1, 72 hpi
[15] = Calu‐3 cells, 5 µM, drug 24 h before infection, MOI = 0.1, 72 hpi

## CN1CCCC(n2nc(Cc3ccc(Cl)cc3)c3ccccc3c2=O)CC1 (centres unmarked) [Azelastine]
SARS‐CoV‐2 [1]
  Viral load after nasal administration: significant viral load reduction

## CN1CCC(=C2c3ccccc3CCc3cccnc32)CC1 [Azatadine‐Dimaleate]
Calu‐3 cells
  Cytotoxicity (cell viability): no discernible toxicity; also recorded: No cytotoxic effects
SARS‐CoV‐2 [2]
  Improvement in potency in combination vs alone: twofold
  EC50: 4000 nM
SARS‐CoV‐2 [3]; [11]
  inhibition at 5 µM: 88.5%
SARS‐CoV‐2 [4]; [12]
  inhibition at 5 µM: 97.6%
SARS‐CoV‐2 [5]; [13]
  EC50: 4000 nM
SARS‐CoV‐2 [6]; 5 µM
  Reduction of viral NSP12 RNA levels relative to untreated controls: approximately 50%
SARS‐CoV‐2 [6]; 25 µM
  Suppression of viral NSP12 RNA levels: > 95%
SARS‐CoV‐2 LIV strain; day 4 post infection, morphometric analysis of SARS‐CoV‐2 N antigen
  Reduction of viral antigen expression in lung (immuno‐stained area): approximately 50%
SARS‐CoV‐2 LIV strain; day 4 post infection
  Mean weight loss: 4%
SARS‐CoV‐2 LIV strain; mouse, in vivo
  Infectious virus in lung by plaque assay vs vehicle: statistical significance reached
  Reduction of viral antigen expression in lung (immuno‐stained area): halved
SARS‐CoV‐2 LIV strain
  Histopathology score: 2
[7]
  Expression of innate immune response genes (IFNL1, IFNB, IFIT1, ISG15, IL6, CXCL8/IL8): significant reductions in all except CXCL8/IL8
SARS‐CoV‐2 [8]; 5 µM
  Reduction in viral titres: approximately 100 fold
SARS‐CoV‐2 [8]; 25 µM
  Reduction in viral titres: ~ 5,000 fold and > 5,000 fold
SARS‐CoV‐2 [9]; 48 hpi
  Lowering of peak viral titers compared to controls: 1.4 log10
SARS‐CoV‐2 [9]; 96 hpi
  Lowering of peak viral titers compared to controls: 2.33 log10
SARS‐CoV‐2 [9]
  Reduction in viral titers compared to DMSO (significance): significantly reduced viral titers at 72 and 96 hpi

## CCC(CC)COC(=O)[C@H](C)N[P@](=O)(OC[C@H]1O[C@@](C#N)(c2ccc3c(N)ncnn23)[C@H](O)[C@@H]1O)Oc1ccccc1 [Remdesivir]
Calu‐3 cells
  Cytotoxicity (cell viability): No cytotoxic effects
SARS‐CoV‐2 [2]
  Improvement in potency in combination vs alone: 2.4 fold
  EC50: 600 nM
SARS‐CoV‐2 [5]; [13]
  EC50: 600 nM
SARS‐CoV‐2 [6]; 1 µM
  Suppression of viral NSP12 RNA levels: > 95%
SARS‐CoV‐2 LIV strain; […]
  Mean weight loss: failed to prevent significant weight loss
SARS‐CoV‐2 LIV strain; mouse, in vivo
  Pulmonary viral RNA load (qRT‐PCR) vs vehicle: reduction achieved statistical significance
SARS‐CoV‐2 LIV strain
  Histopathology score: 3
SARS‐CoV‐2 [8]; 1 µM
  Inhibitory activity on viral titres: comparable inhibitory activity to 25 µM Azatadine‐Dimaleate
SARS‐CoV‐2 [9]
  Reduction in viral titers compared to DMSO (significance): greatest reduction in viral titers

## N#C[C@@]1(c2ccc3c(N)ncnn23)O[C@H](CO)[C@@H](O)[C@H]1O [GS‐441524]
SARS‐CoV‐2 [3]; Severe acute respiratory syndrome coronavirus 2, Vero
  inhibition at 5 µM: 80 to 90%
SARS‐CoV‐2 [4]; Severe acute respiratory syndrome coronavirus 2, Calu-3
  inhibition at 5 µM: 80 to 90%
SARS‐CoV‐2 [5]; Severe acute respiratory syndrome coronavirus 2, Calu-3, read-out: EC50 (CPE inhibition)
  EC50: 850 nM

## CCOC(=O)N1CCC(=C2c3ccc(Cl)cc3CCc3cccnc32)CC1 [Loratadine]
SARS‐CoV‐2 [3]; [14]
  % of CPE inhibition: negligible activity
SARS‐CoV‐2 [4]; [15]
  % of CPE inhibition: negligible activity

## CCN(CC)CCCC(C)Nc1ccnc2cc(Cl)ccc12 (centres unmarked) [Chloroquine]
SARS‐CoV‐2 [3]; [11]
  inhibition at 5 µM: 100%
SARS‐CoV‐2 [4]; [15]
  % of CPE inhibition: negligible antiviral activity

## CC(C)(C)[C@@H]1NC(=O)O[C@@H]2CCC[C@H]2OC/C=C/C(F)(F)c2nc3ccccc3nc2O[C@@H]2C[C@@H](C(=O)N[C@]3(C(=O)NS(=O)(=O)C4(C)CC4)C[C@H]3C(F)F)N(C2)C1=O [Glecaprevir]
SARS‐CoV‐2 [3]; [11]
  inhibition at 5 µM: 80 to 90%
SARS‐CoV‐2 [4]; [12]
  inhibition at 5 µM: 80 to 90%

## CC(C)n1nc(-c2ccc3oc(N)nc3c2)c2c(N)ncnc21 [Sapanisertib]
SARS‐CoV‐2 [3]; [11]
  inhibition at 5 µM: 80 to 90%
SARS‐CoV‐2 [4]; [12]
  inhibition at 5 µM: 80 to 90%

## CS(=O)(=O)O.CS(=O)(=O)O.Cc1cccc(/C=N/Nc2cc(N3CCOCC3)nc(OCCc3ccccn3)n2)c1 [Apilimod (mesylate)]
SARS‐CoV‐2 [3]; [14]
  % of CPE inhibition: 100%
SARS‐CoV‐2 [4]; [15]
  % of CPE inhibition: negligible antiviral activity

## CCN(CCO)CCCC(C)Nc1ccnc2cc(Cl)ccc12 (centres unmarked) [hydroxychloroquine]
SARS‐CoV‐2 [3]; [11]
  inhibition at 5 µM: 100%
SARS‐CoV‐2 [4]; [15]
  % of CPE inhibition: negligible antiviral activity

## c1ccc2c(c1)Sc1ccccc1N2CC1CN2CCC1CC2 (centres unmarked) [Mequitazine]
SARS‐CoV‐2 [3]; [14]
  % of CPE inhibition: modest efficacy in Vero cells only
SARS‐CoV‐2 [10]
  IC50: 7280 nM

Reference: paper PMC12631721, “Preclinical Screening Platform Identifies Azatadine‐Dimaleate as a Potent Repurposed Therapeutic Against SARS‐CoV‐2 Infection” (Journal of Medical Virology, 2025)
